{
  "source": "patent US20020095030A1",
  "about": "“FLIP GENES AND FLIP PROTEINS” (priority 1997, published 2002)",
  "system": "293T-cells",
  "experiment": "Apoptosis by over-expression of TRAMP in 293T cells (Cell Death Detection ELISA)",
  "type": "cell-based, human",
  "conditions": "25 μM in medium",
  "note": "Peptide text beside a SMILES is read from it. * marks the point of attachment. Cbz = O=C(OCc1ccccc1)*; CH2F = FC*",
  "data": [
    {"compound": "COC(=O)C[C@H](NC(=O)[C@H](C)NC(=O)[C@@H](NC(=O)OCc1ccccc1)C(C)C)C(=O)CF", "note": "[z-VAD-fmk] (Cbz-Val-Ala-Asp(OMe)-CH2F)", "values": [
      {"measurement": "protection of TRAMP over expressing cells", "result": 100, "unit": "%"}
    ]}
  ]
}
